Source: patent US10301288B2, “Kinase inhibitors” (Topivert Pharma Limited, priority 2013, dated 2019)

What was measured:
[1] = Hydrolytic stability study in DMSO and water (3:1); format: physicochemical; conditions: 1 mg/mL
Procedure: General HPLC Procedure • Agilent, Waters X-Select C18, 2.5 μm, 4.6×30 mm column, 4 min method, 5-95% MeCN/water (0.1% formic acid). • Flow rate 2.5 ml/min • Column Oven Temperature 40° C. • Detection 254 nm.
Sample Preparation • A 1.0 mg sample of test compound was dissolved in 750 μL of DMSO. Water (250 μL) was added slowly, ensuring no precipitation occurred.
Recording Stability • A 50 μL aliquot of the test solution was removed and analysed in duplicate by 5 μL HPLC injections. The peak area for the test compound was recorded following manual integration of the corresponding UV trace. • The test solution was heated to 60° C., with stirring, and 50 μL aliquots removed for HPLC analysis at 5 and 24 h timepoints.

[2] = Hepatic microsomal stability, dog; format: in vitro ADME; conditions: pooled liver microsomes, read-out: Mean intrinsic clearance
Procedure: (§1) • Microsomal stability assays were performed with incubations of test compounds at 0.1 μM (n=2, final DMSO concentration 0.25%), and carried out using pooled human, […], rat and Cynomolgus macaque hepatic microsomes from Xenotech (Lots 1210153, 0810143 and 1110042, respectively) at 0.25 mg protein/mL in the presence of cofactor, NADPH. The incubations were performed at 37° C. with 100 μL aliquots taken from the incubation, at 0, 2, 5, 10 and 20 minutes (and, in the case of Cynomolgus macaque hepatic microsomes, 40 minutes) and reactions terminated by addition of 100 μL of acetonitrile containing carbamazepine as analytical internal standard. […] Half-life values were calculated from the relationship T1/2 (min)=−0.693/λ • where λ was the slope of the Ln concentration vs time curve. • The in vitro intrinsic clearance, Clint (mL/min/kg), was calculated and scaled to hepatic extraction ratios using the following scaling parameters and formulae.
(§2) Formulae Clint(tissue clearance) mL/min/kg=[0.693/t½ (min)]×[1/microsomal protein concentration mg/mL]×[mg microsomes/g liver]×[g liver/kg body weight] […] Half-life values were calculated from the relationship T1/2 (min)=−0.693/λ • where λ was the slope of the Ln concentration vs time curve. • Standard compounds testosterone, midazolam and 4-methylumbelliferone are included in the assay design.

[3] = Hepatic microsomal stability, Cynomolgus macaque; format: in vitro ADME; conditions: pooled liver microsomes, read-out: Mean intrinsic clearance
Procedure: as §1, §2

[4] = Hepatic microsomal stability, rat; format: in vitro ADME; conditions: pooled liver microsomes, read-out: Mean intrinsic clearance
Procedure: as §1, §2

[5] = tested on: TNBS-induced colitis in mice; test: (C) TNBS-induced colitis in mice; format: in vivo, male BDF1 mice; conditions: for LP inflammation / Ulcer grade: 2 days
Procedure: Non-fasted, 10-12 week old, male BDF1 mice are dosed by oral gavage twice daily with either vehicle (5 mL/kg), reference item (Budesonide 2.5 mg/kg) or test compound (1 or 5 mg/kg) one day before (Day −1) stimulation of the inflammatory response by treatment with 2,4,6-trinitrobenzenesulphonic acid (TNBS) (15 mg/mL in 50% ethanol/50% saline). On Day 0 of the study TNBS (200 μL) is administered intra-colonically via a plastic catheter with BID dosing of the vehicle, reference or test compound continuing for 2 or 4 days. During the study animals are weighed every day and stool observations are made and recorded as a score, based on stool consistency. At the time of sacrifice on Day 2 (or Day 4) the large intestine is removed and the length and weight recorded. Sections of the colon are taken for histopathology scoring to determine disease severity.

[6] = Analysis of metabolites in hepatocytes; format: in vitro ADME, rat, dog, Cynomolgus macaque, human; conditions: 10 μM, hepatocytes of four species, 0, 60 and 90 minutes
Procedure: Studies were conducted by BioFocus (Saffron Walden, UK) to determine the metabolic fate of the compound of Example 2 following incubation with rat, dog, Cynomolgus macaque or human hepatocytes.
Sample replicates were pooled prior to analysis.
Potential metabolites were identified using time-of-flight (TOF) and triple quadruple (TQ) mass spectrometers.

β-catenin = test: (m) Accumulation of β catenin in d-U937 cells; format: cell-based, human; conditions: Reference Compound at 1 μg/mL defined as 100%
Method in brief: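 PMA-differentiated (100 ng/mL, 48–72 hr) human U937 macrophage-type cells treated with test compound or vehicle for 18 hr. β-catenin measured by in-cell ELISA (anti-β-catenin, HRP secondary, TMB, OD450–655). Signal corrected for cell number by dividing by crystal violet OD595.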

C#Cc1cc(Nc2nccc(Oc3ccc(NC(=O)Nc4cc(C(C)(C)C)nn4-c4ccc(C)cc4)c4ccccc34)n2)cc(C(=O)NCCOCCOCCOC)c1 [Example 2, 3-((4-((4-(3-(3-(tert-Butyl)-1-(p-tolyl)-1H-pyrazol-5-yl)ureido)naphthalen-1-yl)oxy)pyrimidin-2-yl)amino)-5-ethynyl-N-(2-(2-(2-methoxyethoxy)ethoxy)ethyl)-benzamide]
% left ([1]; 0 min): 100%
% left ([1]; 60° C., 300 min): 83%
% left ([1]; 60° C., 1440 min): 39%
microsomal CLint at 0.1 μM [2]: > 554 µL/min/mg
microsomal CLint at 0.1 μM [3]: 445 µL/min/mg
microsomal CLint at 0.1 μM [4]: 199 µL/min/mg
LP inflammation ([5]; 1 mg/kg oral BID): 2.9 ± 0.3
Ulcer grade ([5]; 1 mg/kg oral BID): 3.5 ± 0.4
LP inflammation ([5]; 5 mg/kg oral BID): 2.2 ± 0.4
Ulcer grade ([5]; 5 mg/kg oral BID): 3.0 ± 0.5
ulcer grade and epithelial repair compared to the vehicle control (histopathology) ([5]; dosed orally at 5 mg/kg): marked improvements in ulcer grade and epithelial repair
inflammatory cell infiltrate in the reticular and lamina propria zones (histopathology) ([5]; oral dosing): marked reduction
total metabolites identified in all studies [6]: nine
% β-catenin induction (β-catenin; 1 μg/mL): 0%
% β-catenin induction (β-catenin; 5 μg/mL): 2%
% β-catenin induction (β-catenin; 10 μg/mL): 0%
